Results taken from patent US8361962B2, “Tricyclic inhibitors of JAK” (Roche Palo Alto LLC, priority 2009, dated 2013).

What follows are compounds tested against T1, h-jak3 (JAK3: Recombinant human kinase domain) (Homo sapiens, UniProt P52333) (assay: Determination of IC50 of Janus Kinase (JAK) inhibition, radioactive end-point 33P-ATP assay, JAK3).
T1 construct: JAK3: Recombinant human kinase domain from Millipore (Cat # 14-629); purchased Millipore 14-629
T1 sequence (P52333 822-1111 limits assumed): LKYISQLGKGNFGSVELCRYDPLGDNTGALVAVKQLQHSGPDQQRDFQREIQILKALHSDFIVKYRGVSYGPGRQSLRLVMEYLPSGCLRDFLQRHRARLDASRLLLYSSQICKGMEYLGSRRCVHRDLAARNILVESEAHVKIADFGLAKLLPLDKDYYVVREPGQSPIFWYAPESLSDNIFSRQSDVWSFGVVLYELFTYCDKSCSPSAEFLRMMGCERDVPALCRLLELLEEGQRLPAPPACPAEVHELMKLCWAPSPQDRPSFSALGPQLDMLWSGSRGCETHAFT
Format: biochemical
Excerpt: Determination of IC50 of Janus Kinase (JAK) Inhibition:
Enzymes and peptide substrate used are described below: • JAK1: Recombinant human kinase domain from Invitrogen (Cat # PV4774) • JAK3: Recombinant human kinase domain from Millipore (Cat # 14-629) • JAK2: Recombinant human kinase domain from Millipore (Cat # 14-640) • Substrate: N-terminally biotinylated 14-mer peptide derived from activation loop of JAK1 with sequence of the peptide substrate: Biotin-KAIETDKEYYTVKD (SEQ ID NO: 1)
Assay conditions used are described below: • Assay Buffer: JAK Kinase Buffer: 50 mM Hepes [pH 7.2], 10 mM MgCl2, 1 mM DTT, 1 mg/ml BSA. The assay is carried out in this buffer. • Assay Format: The kinase activity of all three JAK kinases is measured using a radioactive, end-point assay and with trace amounts of ^33P-ATP. The assays are carried out in 96-well polypropylene plates. Experimental Method:
All concentrations are final in the reaction mixture and all incubations are carried at room temperature. Assay steps are described below: • Compounds are serially diluted in 100% DMSO typically at a 10× starting concentration of 1 mM. Final concentration of DMSO in the reaction is 10%. • Compounds are preincubated with enzyme (0.5 nM JAK3, 1 nM JAK2, 5 nM JAK1) for 10 minutes. • Reactions are initiated by the addition of a cocktail of the two substrates (ATP and peptide premixed in the JAK Kinase Buffer). In the JAK2/JAK3 assays, ATP and the peptide are used at concentrations of 1.5 uM and 50 uM, respectively. JAK1 assay is carried out at an ATP concentration of 10 uM and a peptide concentration of 50 uM. The duration of the assay for JAK2 and JAK3 is 20 minutes. JAK1 assay is carried out for 40 minutes. With all three enzymes, reactions are terminated by the addition of 0.5M EDTA to a final concentration of 100 mM. • 25 ul of terminated reactions are transferred to 150 ul of a 7.5% (v/v) slurry of streptavidin-coated sepharose beads in MgCl2- and CaCl2-free 1× Phosphate Buffered Saline containing 50 mM of EDTA in 96-well, 1.2 um MultiScreen-BV filter plates. After a 30-minute incubation, the beads are washed under vacuum with the following buffers: • 3 to 4 washes with 200 ul of 2M NaCl. • 3 to 4 washes with 200 ul of 2M NaCl plus 1% (v/v) phosphoric acid. • 1 wash with water. • Washed plates are dried in a 60° C. oven for between 1 to 2 hours. • 70 ul of Microscint 20 scintillation fluid is added to each well of filter plates and after at least 30 minutes of incubation, radioactive counts are measured in a Perkin Elmer microplate scintillation counter.
`C[C@H]1CCCC[C@H]1c1nnc2cnc3[nH]ccc3n12` [Compound I-6, 1-((1R,2S)-2-Methyl-cyclohexyl)-6H-2,3,5,6,8b-pentaaza-as-indacene] showed an IC50 of 69.3 nM and a Ki of 35.5 nM.
`CCS(=O)(=O)N1CC[C@H](C)[C@H](c2ccc3cnc4[nH]ccc4n23)C1` [Compound I-4, 8-((3S,4S)-1-Ethanesulfonyl-4-methyl-piperidin-3-yl)-3H-3,4,8a-triaza-as-indacene] showed a Ki of 0.964 nM.
In the case of `c1cc2c(ncc3cnc(C4CCCCC4)n32)[nH]1` [Compound I-10, 1-Cyclohexyl-6H-2,5,6,8b-tetraaza-as-indacene], the IC50 is reported as 93 nM and the Ki is reported as 47.7 nM.
In the case of `C[C@H]1CCN(C(=O)CC#N)C[C@H]1c1nnc2cnc3[nH]ccc3n12` [Compound I-9, 3-[(3S,4S)-4-Methyl-3-(6H-2,3,5,6,8b-pentaaza-as-indacen-1-yl)-piperidin-1-yl]-3-oxo-propionitrile], the IC50 is reported as 25 nM and the Ki is reported as 12.8 nM.
In the case of `c1cc2c(ncc3ccc(C4CCCCC4)n32)[nH]1` [Compound I-2, 8-Cyclohexyl-3H-3,4,8a-triaza-as-indacene], the IC50 is reported as 20.2 nM and the Ki is reported as 10.4 nM.
In the case of `CC1CCCCN1c1ccc2cnc3[nH]ccc3n12` (centres unmarked) [Compound I-3, 8-(2-Methyl-piperidin-1-yl)-3H-3,4,8a-triaza-as-indacene], the IC50 is reported as 39.9 nM and the Ki is reported as 20.5 nM.
For `CCS(=O)(=O)N1CC[C@@H](C)[C@@H](c2nnc3cnc4[nH]ccc4n23)C1` [Compound I-7, 1-((3R,4R)-1-Ethanesulfonyl-4-methyl-piperidin-3-yl)-6H-2,3,5,6,8b-pentaaza-as-indacene], the IC50 was 231 nM and the Ki was 103 nM.
`c1cc2c(ncc3nnc(C4CCCCC4)n32)[nH]1` [Compound I-8, 1-Cyclohexyl-6H-2,3,5,6,8b-pentaaza-as-indacene] was tested, and the IC50 was 449 nM and the Ki was 225 nM.
Work on `CCS(=O)(=O)N1CCC(C)[C@H](c2ccc3cnc4[nH]ccc4n23)C1` (stereo in doubt) [Compound I-5, 8-((3S,4S)-1-Ethanesulfonyl-4-methyl-piperidin-3-yl)-3H-3,4,8a-triaza-as-indacene] yielded an IC50 of 203 nM and a Ki of 119 nM.
